Target: T1, RMgase (recombinant alpha-galactosidase) (Rhizomucor miehei, UniProt H8Y263)
T1 construct: codon-optimised synthetic gene with XPR2 signal peptide at 5' end (vector pINA1312), secreted by Yarrowia lipolytica transformant G82; purified by DEAE-Sepharose for pH/temperature profiles
T1 sequence (H8Y263 18-751): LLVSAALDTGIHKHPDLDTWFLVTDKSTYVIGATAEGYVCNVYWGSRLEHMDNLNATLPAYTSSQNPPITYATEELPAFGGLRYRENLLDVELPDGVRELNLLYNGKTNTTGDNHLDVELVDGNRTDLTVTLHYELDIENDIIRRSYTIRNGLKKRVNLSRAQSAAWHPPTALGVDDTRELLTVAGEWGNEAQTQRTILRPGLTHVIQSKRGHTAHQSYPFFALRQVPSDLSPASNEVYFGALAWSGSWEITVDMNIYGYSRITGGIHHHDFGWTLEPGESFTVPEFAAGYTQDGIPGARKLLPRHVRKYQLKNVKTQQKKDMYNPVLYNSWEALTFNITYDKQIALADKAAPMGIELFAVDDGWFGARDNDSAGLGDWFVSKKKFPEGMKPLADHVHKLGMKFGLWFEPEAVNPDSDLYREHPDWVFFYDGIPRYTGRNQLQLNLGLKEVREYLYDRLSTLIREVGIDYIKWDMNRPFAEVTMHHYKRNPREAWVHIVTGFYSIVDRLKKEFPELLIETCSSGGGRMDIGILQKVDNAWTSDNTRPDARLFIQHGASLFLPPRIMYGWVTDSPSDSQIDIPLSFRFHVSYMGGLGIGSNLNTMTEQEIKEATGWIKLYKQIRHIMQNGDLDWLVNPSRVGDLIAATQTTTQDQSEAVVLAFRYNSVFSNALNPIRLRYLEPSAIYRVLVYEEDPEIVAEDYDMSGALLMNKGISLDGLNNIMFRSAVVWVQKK
Test: sugar hydrolysis, activity of secreted enzyme
Type: biochemical

For OC[C@H]1O[C@H](OC[C@H]2O[C@H](OC[C@H]3O[C@H](O[C@]4(CO)O[C@H](CO)[C@@H](O)[C@@H]4O)[C@H](O)[C@@H](O)[C@@H]3O)[C@H](O)[C@@H](O)[C@H]2O)[C@H](O)[C@@H](O)[C@H]1O [stachyose], which “sugar hydrolysis, activity of secreted enzyme” value is on record?
The value was “the α-galactosidase activity using pNPG, stachyose, raffinose and melibiose as substrate”.
